Reference: patent publication US20130156857A1, “Pharmaceutical Compositions Containing Diacerein” (TWI BIOTECHNOLOGY, INC., priority 2008, published 2013)
In brackets after ≈: the same amount, converted by molar mass. Read-outs that look alike come from different tables or passages of the source.

Experiments:
[1] = in vivo; cited from earlier work
[2] = Solubility and stability pH profile of diacerein at ambient temperature for 48 hours; assay type: physicochemical; conditions: for Proportion of Diacerein and its degradants: Diacerein / solubility at 48 h: 48 hours; for solubility at 48 h: thermodynamic from solid, read-out: Total solubility
Excerpt: (§1) The tables below indicate the solubility and stability of diacerein in buffer solutions with different pH values. […] The degradation products including rhein increase at a pH above 5. The poor stability of diacerein in the intestinal environment may result in incomplete absorption and cause poor and variable bioavailability. Moreover, one of the increased degradants in the intestinal environment, rhein, has been suspected to be a major factor in stimulating colon mucosa and results in diarrhea. Accordingly, methods to stabilize diacerein during gastro-intestinal absorption might improve its bioavailability as well as the side effect of diarrhea. The stabilization methods for use with diacerein may include the addition of acidifying or buffering agents or complexation with cyclodextrins.

[3] = cited from earlier work
[4] = Solubility and stability of diacerein at ambient temperature for one hour; assay type: physicochemical
Excerpt: as §1

[5] = cited from earlier work; remark: listed apart in the source
[6] = cited from earlier work; remark: listed apart in the source

CC(=O)Oc1cccc2c1C(=O)c1c(OC(C)=O)cc(C(=O)O)cc1C2=O [Diacerein, 4,5-bis(acetyloxy)-9,10-dioxo-2-anthracene carboxylic acid]
conversion before reaching the systemic circulation [1]: entirely converted into rhein
Proportion of Diacerein and its degradants: Diacerein ([2]; 0.01N HCl, final pH 1.98, ambient temperature): 100%
Proportion of Diacerein and its degradants: Diacerein ([2]; 50 mM NaH2PO4, final pH 3.03, ambient temperature): 100%
Proportion of Diacerein and its degradants: Diacerein ([2]; 50 mM NaH2PO4, final pH 4.17, ambient temperature): 100%
Proportion of Diacerein and its degradants: Diacerein ([2]; 50 mM NaH2PO4, final pH 5.04, ambient temperature): 60%
Proportion of Diacerein and its degradants: Diacerein ([2]; 50 mM NaH2PO4, final pH 5.97, ambient temperature): 77%
Proportion of Diacerein and its degradants: Diacerein ([2]; 50 mM NaH2PO4, final pH 6.55, ambient temperature): 45%
Proportion of Diacerein and its degradants: Diacerein ([2]; 50 mM NaH2PO4, final pH 6.70, ambient temperature): 34%
solubility at 48 h ([2]; 50 mM NaH2PO4 buffer, aqueous buffer, 50 mM NaH2PO4, final pH 3.03, ambient temperature): 0.35 µg/mL (≈ 0.95 µM)
solubility at 48 h ([2]; 50 mM NaH2PO4 buffer, aqueous buffer, 50 mM NaH2PO4, final pH 4.17, ambient temperature): 0.43 µg/mL (≈ 1.17 µM)
Proportion of Diacerein and its degradants: Diacerein ([2]; 0.1N HCl, final pH 1.17, ambient temperature): 100%
Proportion of Diacerein and its degradants: Diacerein ([2]; Water, final pH 5.79, ambient temperature): 90%
solubility at 48 h ([2]; buffer solution (0.01N HCl), simulated gastric fluid, 0.01N HCl, final pH 1.98, ambient temperature): 0.15 µg/mL (≈ 0.407 µM)
solubility in buffer solution ([2]; pH below 4.17): relatively low
stability in buffer solution ([2]; pH below 4.17): stable
solubility at 48 h ([2]; simulated gastric fluid, 0.1N HCl, final pH 1.17, ambient temperature): 0.17 µg/mL (≈ 0.462 µM)
solubility in water [3]: practically insoluble
Proportion of Diacerein and its degradants: Diacerein ([4]; final pH 6.55*): 90%
Proportion of Diacerein and its degradants: Diacerein ([4]; final pH 6.70*): 83%
Oral bioavailability [5]: 35-56%
bioavailability with feeding ([5]; oral, feeding): 43-70%
diarrhea or soft stools occurred in the patients ([6]; 3-year clinical study, diacerein twice a day with meals): up to 30%
severity of diarrhea ([6]; occurs within the first two weeks of treatment): mild-to-moderate

O=C(O)c1cc(O)c2c(c1)C(=O)c1cccc(O)c1C2=O [Rhein]
conjugated in the liver to rhein glucuronide [1]: 60%
conjugated in the liver to rhein sulfate [1]: 20%
eliminated by the renal route [1]: 20%
